Consider 8 substances from article PMC5114273, “Activity of Scorpion Venom-Derived Antifungal Peptides against Planktonic Cells of Candida spp. and Cryptococcus neoformans and Candida albicans Biofilms” (Frontiers in Microbiology, 2016).

Ends that are not written are not given here.

In data set [1] the test system is Candida spp. and C. neoformans. The data set is described as follows: Broth microdilution antifungal assay, summary over the strains tested. The note with it: data not shown. It is filed as cell-based, Candida spp.; Cryptococcus neoformans. The text has this:
(§1) Candida albicans strain SC 5314 (ATCC MYA-2876) was provided by Dr. Joshua Nosanchuk (New York, NY, USA). C. glabrata ATCC 90030, C. parapsilosis ATCC 22019, and C. tropicalis ATCC 750 were provided by Dr. Érika Kioshima (Universidade Estadual de Maringá, Paraná, Brazil). C. neoformans var. grubii strain H99 (serotype A, ATCC 208821) was provided by Dr. John Perfect (Durham, NC, USA). C. neoformans var. neoformans B3501 (serotype D, ATCC 34873) was obtained from ATCC (Manassas, VA, USA). All strains were stored as frozen stocks in 35% glycerol at -80°C. Before each experiment, all Candida spp. strains were grown in Sabouraud’s dextrose broth overnight at 30°C with agitation. C. neoformans strains were grown in the same conditions for 24 h. Fungal cells were collected by centrifugation, washed three times in phosphate buffered saline (PBS) (137 mM NaCl, 2.7 mM KCl, 10 mM Na2HPO4, 2 mM KH2PO4) and inoculated in Roswell Park Memorial Institute (RPMI) 1640 medium supplemented with L-glutamine and buffered to pH 7.0 with 165 mM 3-(N-morpholino)propanesulfonic acid for experiments described below.
In vitro antifungal assays were performed according to broth microdilution susceptibility test from Clinical and Laboratory Standards Institute (CLSI) M27-A3 guidelines with some modifications. Briefly, twofold serial dilutions of each peptide were prepared in 96-well polystyrene microplates to a final volume of 50 μL. Amphotericin B (Amp B; A2942, Sigma-Aldrich), a known antifungal drug, was used as a positive control. Final concentrations of each peptide and Amp B ranged from 100 to 0.78 μM and 16 to 0.03 μg/mL, respectively, except in tests with C. glabrata and C. parapsilosis, where the final peptide concentration ranged from 400 to 0.78 μM. In each plate, wells were included without peptide as a growth control. Then, 50 μL of the adjusted inoculum in RPMI-1640 medium were added to each well to a final concentration of 2 × 10^3 cells/mL for Candida spp. and 10^4 cells/mL for C. neoformans strains. The plates were incubated at 37°C for 24 and 48 h, respectively. […]

Data set [2] in a line: Circular dichroism, α-helix content. The note with it: CD, 0.2 mg/mL, 37°C, from [θ]208. It is filed as physicochemical. On the procedure:
Circular dichroism (CD) assays were carried out using Jasco J-815 spectropolarimeter equipped with a Peltier-type temperature controller. Peptides (0.2 mg/mL) were analyzed in water at 37°C in absence or the presence of trifluoroethanol (TFE) (10, 30, and 50%). The mean spectrum of three consecutive experiments was corrected for the baseline buffer contribution. The observed ellipticities were converted into molar ellipticity ([θ]) based on molecular mass per residue of 115 Da ([Adler et al., 1973]). The α helix secondary structure content (fθ) was estimated considering the values of [θ]208 nm as a function of TFE concentration using the following equation ([Greenfield and Fasman, 1969]): […]
On the technique in general: Circular dichroism is widely used to follow secondary structure.

A further data set concerns human erythrocytes. The experiment in a line: Hemolytic assay. It is filed as cell-based. As to conditions: 1 h, 540 nm; for Hemolysis: all the tested concentrations (100 to 0.78 μM), 3% hematocrit in PBS. An excerpt:
Considering the potential use of the AMPs as treatment against pathogens, even if in a more distant future, some of their properties against host cells should be addressed. To achieve this goal, we have performed hemolytic assay to evaluate if these molecules are toxic or harmless to red blood cells. Further, we have also tested the possible cytotoxicity of those peptides against other mammalian cell types by following the cell viability score after treatment. The solution of human red blood cells was treated with the peptide at levels ranging from 100 to 0.78 μM. Whole human blood was collected from healthy donors in vials with ethylenediaminetetraacetic acid (EDTA). The red blood cells were separated by centrifugation and resuspended in PBS. After the centrifugation (800 g, 5 min at 4 ± 1°C) the supernatant was removed and the red blood cells pellet was resuspended to a 3% hematocrit in sterile water (considered as 100% hemolysis) and PBS (taken as blank for spectrophotometric measurement). Fifty microliters of the 3% cell suspension in PBS were added to different final concentrations of the peptide (v/v) in a 96-well polystyrene microplate and then incubated for 1 h ([Nahar et al., 2008]; [Zhao et al., 2009]; [Qi et al., 2010]). The microplates were centrifuged and the supernatant was collected and analyzed at 540 nm using a microplate spectrophotometer. The percentage of hemolysis was calculated relative to the positive control as performed by [Nahar et al. (2008)]. The procedures were approved by the Ethics Committee on Human Research of Faculty of Medicine/University of Brasília (UnB) and conform to FDA standards (UnBDoc no. 66704/2016).

In data set [3] the test system is C. parapsilosis (ATCC 22019). The experiment in a line: microbe, parasite or virus in culture. In kind it is cell-based, Candida parapsilosis. As to conditions: RPMI-1640 pH 7.0, 2 × 10^3 cells/mL, 37°C, 24 h; peptides 400 to 0.78 μM; at least three experiments; read-out: Minimum inhibitory concentration, C. parapsilosis (ATCC 22019).
Source text: as §1
(§2) In vitro antifungal assays were performed according to broth microdilution susceptibility test from Clinical and Laboratory Standards Institute (CLSI) M27-A3 guidelines with some modifications. Briefly, twofold serial dilutions of each peptide were prepared in 96-well polystyrene microplates to a final volume of 50 μL. Amphotericin B (Amp B; A2942, Sigma-Aldrich), a known antifungal drug, was used as a positive control. Final concentrations of each peptide and Amp B ranged from 100 to 0.78 μM and 16 to 0.03 μg/mL, respectively, except in tests with C. glabrata and C. parapsilosis, where the final peptide concentration ranged from 400 to 0.78 μM. In each plate, wells were included without peptide as a growth control. Then, 50 μL of the adjusted inoculum in RPMI-1640 medium were added to each well to a final concentration of 2 × 10^3 cells/mL for Candida spp. and 10^4 cells/mL for C. neoformans strains. The plates were incubated at 37°C for 24 and 48 h, respectively. The strains of C. neoformans were also incubated with shaking (200 rpm). […] The experiments were performed at least three times on separate dates.

The subject of data set [4] is C. neoformans (H99 serotype A). The experiment in a line: microbe, parasite or virus in culture. It is filed as cell-based, Cryptococcus neoformans var. grubii. The note with it: RPMI-1640 pH 7.0, 10^4 cells/mL, 37°C, 48 h, shaking 200 rpm; at least three experiments; read-out: Minimum inhibitory concentration, C. neoformans (H99 serotype A).
Source text: as §1, §2

The next data set has as its system C. tropicalis (ATCC 750). The experiment in a line: microbe, parasite or virus in culture. In kind it is cell-based, Candida tropicalis. The note with it: RPMI-1640 pH 7.0, 2 × 10^3 cells/mL, 37°C, 24 h; complete inhibition of visible growth; at least three experiments; read-out: Minimum inhibitory concentration, C. tropicalis (ATCC 750).
Source text: as §1, §2

Data set [5] has as its system peritoneal macrophages of BALB/c mice. The experiment in a line: Cytotoxic test using peritoneal macrophages (LDH release). It is filed as cell-based, mouse. The note with it: 24 h; for Viability of peritoneal macrophages: whole range of peptide concentrations. The protocol:
BALB/c mice were injected with thioglycolate 72 h before peritoneal macrophages were harvested. They were diluted to a concentration of 10^6 cell/mL in RPMI-1640 supplemented with penicillin/streptomycin (100 U/mL, 100 µg/mL), 2 mM L-glutamine, 2 mM non-essential amino acids, 1 mM sodium pyruvate (all reagents from Sigma-Aldrich, St Louis, MO, USA) and 10% fetal bovine serum (FBS), and incubated in 96-well polystyrene microplates at 37°C, 5% CO2 for 24 h. The peptides were added then and cells were further incubated for 24 h as described previously ([Cruz et al., 2005]). Three independent experiments were performed. Cytotoxic activity was evaluated by the release of cytoplasmic enzyme lactate dehydrogenase due to cell lysis using the Cytotox kit (Promega). Briefly, at the end of the incubation period, supernatants were collected, the adhered cells were washed and the toxicity was determined according to the manufacturer’s protocol. The procedures were approved by the Ethics Committee on Animal Research of Institute of Biology (UnBDOC 52657/2011)/University of Brasília (UnB).

The next data set concerns C. albicans (SC5314). The data set is described as follows: microbe, parasite or virus in culture. The note with it: RPMI-1640 pH 7.0, 2 × 10^3 cells/mL, 37°C, 24 h; complete inhibition of visible growth; at least three experiments; read-out: Minimum inhibitory concentration, C. albicans (SC5314). It is filed as cell-based, Candida albicans.
Source text: as §1, §2

Another data set has as its system C. glabrata (ATCC 90030). The data set is described as follows: microbe, parasite or virus in culture. In kind it is cell-based, Candida glabrata. As to conditions: RPMI-1640 pH 7.0, 2 × 10^3 cells/mL, 37°C, 24 h; peptides 400 to 0.78 μM; at least three experiments; read-out: Minimum inhibitory concentration, C. glabrata (ATCC 90030).
Source text: as §1, §2

Data set [6] concerns C. neoformans (B3501 serotype D). The experiment in a line: microbe, parasite or virus in culture. It is filed as cell-based, Cryptococcus neoformans var. neoformans. The note with it: RPMI-1640 pH 7.0, 10^4 cells/mL, 37°C, 48 h, shaking 200 rpm; at least three experiments; read-out: Minimum inhibitory concentration, C. neoformans (B3501 serotype D).
Source text: as §1, §2

With “EEDDLLGFSEEDLKAIKEHRAKNA-NH2 [ToAcP, anionic peptide from T. obscurus, LT576031]”, in data set [1] (Candida spp. and C. neoformans), the “Antifungal activity in the tested concentrations” value (shortened to “Antifungal activity”) is “did not present antifungal activity”.

“FFGTLFKLLSKLIPGLMKLFSKLLER-NH2 [ToAP2S1, modified analog of ToAP2, C-terminally amidated]”: the “α-Helix content (%), TFE 10%” value in data set [2] (TFE 10%) was determined as 22.9%. Further, in [2] (TFE 30%), the “α-Helix content (%), TFE 30%” value stood at 24.3%. Moreover, the “α-Helix content (%), TFE 50%” value in data set [2] (TFE 50%) is given as 24.7%. In data set [2] (water, mean spectrum of three experiments), the “α-Helix content (%), water” value was determined as 16.5%. Also, the “Antifungal activity” value in data set [1] (C. albicans, C. glabrata and C. neoformans H99) is given as “did not show antifungal activity”. The “Hemolysis curve compared with ToAP2” value in the data set on human erythrocytes (with concentrations up to 25 μM) was “higher hemolysis curve”.

Consider “FFSLIPSLIGGLVSAIK-NH2 [ToAP4, NDBP subfamily 4 peptide from T. obscurus, amidated]”, for which the “Antifungal activity” value in [1] (Candida spp. and C. neoformans) was “has not shown antifungal activity”.

As for FIGMIPGLIGGLISAFK-NH2 [ToAP1], the MIC was 200 µM in data set [3]; 25 µM in [4]; 12.5 µM in the data set with C. tropicalis (ATCC 750); 50 µM in the data set with C. albicans (SC5314); >400 µM with C. glabrata (ATCC 90030); 12.5 µM in data set [6]. In addition, in [5], the “Viability of peritoneal macrophages” value is on record as “higher viability”. Further, the Hemolysis entry with human erythrocytes is “lower than 50%”.

For the substance FIGMIPGLIGGLISAIK-NH2 [ToAP3], the MIC in data set [3] is reported as 100 µM; in data set [4], 100 µM; with C. tropicalis (ATCC 750), 12.5 µM; with C. albicans (SC5314), 25 µM; in the data set on C. glabrata (ATCC 90030), >400 µM; in [6], 25 µM.

Turning to FLGMIPGLIGGLISAFK-NH2 [NDBP-4.23], the MIC in data set [3] was 100 µM; in [4], 25 µM; in the data set on C. tropicalis (ATCC 750) it was 6.25 µM; in the data set on C. albicans (SC5314) it was 50 µM; in the data set with C. glabrata (ATCC 90030) it was >400 µM; in data set [6], 12.5 µM. In addition, in [5] (threshold of acceptable cytotoxicity 50% viability, three independent experiments), the “Concentrations showing low cytotoxicity” value was < 25 µM. Further, the Hemolysis entry in the data set with human erythrocytes is on record as “lower than 50%”.

Regarding GILGKIWEGVKSLI [NDBP-5.8], the MIC is listed as 200 µM in data set [3]; 100 µM in data set [4]; 25 µM with C. tropicalis (ATCC 750); 100 µM in the data set with C. albicans (SC5314); >400 µM in the data set with C. glabrata (ATCC 90030); 50 µM in data set [6].

With ILSAIWSGIKSLF-NH2 [NDBP-5.7], the MIC in data set [3] is reported as >400 µM; in [4] it was 25 µM; with C. tropicalis (ATCC 750), 25 µM; in the data set on C. albicans (SC5314) it was 25 µM; with C. glabrata (ATCC 90030), >400 µM; in data set [6], 12.5 µM. In addition, the “Viability of peritoneal macrophages” value in data set [5] is reported as “higher viability”. Also, the Hemolysis percent entry in the data set on human erythrocytes (in concentrations up to 50 μM) is reported as “higher than 50%”.
